Experimental data from publication PMC8931250, “A SURF4-to-proteoglycan relay mechanism that mediates the sorting and secretion of a tagged variant of sonic hedgehog” (Proceedings of the National Academy of Sciences of the …, 2022).
Ends that are not written are not given here.

Molecular target: T1, GST-SURF4^49-60 (Homo sapiens, UniProt O15260)
T1 construct: SURF4 (49-60) in the same buffer was in the calorimetric cell; made in house; host or cells: Escherichia coli
Assay: Isothermal titration calorimetry, CW peptide vs GST-SURF4(49-60)
Format: binding
Conditions: ITC (PEAQ-ITC); 500 µM CW peptide into 50 µM GST-SURF4 (49-60); 10 mM PBS, 0.5 mM HEPES, 6.3 mM sorbitol, 1.75 mM KOAc, 25 µM Mg(OAc)2, 25 µM BSA, 0.003% Triton, pH 7.2; one set of site model; read-out: Kd of CW peptides for GST-SURF4^49-60
Description: To measure a direct interaction, we immobilized the first luminal loop of SURF4 (SEQRDYIDTTWNC, referred to as SURF4 luminal peptides) on beads and then performed pull down analysis using purified GST and Shh^25-49-GST as prey (Fig. 3H). […] As an additional test, we performed pull down analysis using peptides corresponding to the CW motif (KRRHPKKC, referred to as CW peptides) as bait and purified GST-SURF4^49-60 as prey (Fig. 3J). […] We then immobilized peptides corresponding to the first intracellular loop of Frizzled6 (VRRFRYPERPC, referred to as RRFR) ([27]) on beads.
The samples were centrifuged at 55,000 rpm in a TLS55 rotor in a Beckman ultracentrifuge for 2 hr at 4 °C.
After centrifugation, fractions were collected from the top to the bottom of the tube, and the top fraction was analyzed by SDS-PAGE and immunoblotting.
Isothermal titration calorimetry (ITC)
We utilized a commercial isothermal titration calorimeter (PEAQ-ITC system, MicroCal, Malvern Panalytical, United Kingdom) to perform titration experiments. In these experiments, a 500 µM solution of CW peptide in a diluted binding buffer (10 mM PBS, 0.5 mM HEPES, 6.3 mM sorbitol, 1.75 mM KOAc, 25 µM Mg(OAc)2 , 25 µM BSA, 0.003% Triton, pH 7.2) was loaded into the syringe of the ITC instrument and a 50 µM solution of GST -SURF4 (49-60) in the same buffer was in the calorimetric cell. […]

- Kd: 2350 ± 90 nM
Sequence: KRRHPKKC [CW peptides]
